Data published in article PMC9133015 (Nature Communications, 2022).
Where “and” joins values, the source holds several entries; their conditions need not be identical. Equal entries are not always repeated. Where two headings read alike, the source gives them in different places.

What was measured:
Experiment in all cases: Kinase inhibitor specificity profiling (Reaction Biology Corporation)
Assay type in all cases: biochemical
Parameters in all cases: % Enzyme Activity (relative to DMSO controls): concentration or dose not given beside the values
[1] = molecular target: T1, panel of 370 protein kinases (Homo sapiens, UniProt P23458); settings: kinase JAK1
T1 construct: purchased Reaction Biology Corporation (assay service)
T1 sequence (P23458 whole entry): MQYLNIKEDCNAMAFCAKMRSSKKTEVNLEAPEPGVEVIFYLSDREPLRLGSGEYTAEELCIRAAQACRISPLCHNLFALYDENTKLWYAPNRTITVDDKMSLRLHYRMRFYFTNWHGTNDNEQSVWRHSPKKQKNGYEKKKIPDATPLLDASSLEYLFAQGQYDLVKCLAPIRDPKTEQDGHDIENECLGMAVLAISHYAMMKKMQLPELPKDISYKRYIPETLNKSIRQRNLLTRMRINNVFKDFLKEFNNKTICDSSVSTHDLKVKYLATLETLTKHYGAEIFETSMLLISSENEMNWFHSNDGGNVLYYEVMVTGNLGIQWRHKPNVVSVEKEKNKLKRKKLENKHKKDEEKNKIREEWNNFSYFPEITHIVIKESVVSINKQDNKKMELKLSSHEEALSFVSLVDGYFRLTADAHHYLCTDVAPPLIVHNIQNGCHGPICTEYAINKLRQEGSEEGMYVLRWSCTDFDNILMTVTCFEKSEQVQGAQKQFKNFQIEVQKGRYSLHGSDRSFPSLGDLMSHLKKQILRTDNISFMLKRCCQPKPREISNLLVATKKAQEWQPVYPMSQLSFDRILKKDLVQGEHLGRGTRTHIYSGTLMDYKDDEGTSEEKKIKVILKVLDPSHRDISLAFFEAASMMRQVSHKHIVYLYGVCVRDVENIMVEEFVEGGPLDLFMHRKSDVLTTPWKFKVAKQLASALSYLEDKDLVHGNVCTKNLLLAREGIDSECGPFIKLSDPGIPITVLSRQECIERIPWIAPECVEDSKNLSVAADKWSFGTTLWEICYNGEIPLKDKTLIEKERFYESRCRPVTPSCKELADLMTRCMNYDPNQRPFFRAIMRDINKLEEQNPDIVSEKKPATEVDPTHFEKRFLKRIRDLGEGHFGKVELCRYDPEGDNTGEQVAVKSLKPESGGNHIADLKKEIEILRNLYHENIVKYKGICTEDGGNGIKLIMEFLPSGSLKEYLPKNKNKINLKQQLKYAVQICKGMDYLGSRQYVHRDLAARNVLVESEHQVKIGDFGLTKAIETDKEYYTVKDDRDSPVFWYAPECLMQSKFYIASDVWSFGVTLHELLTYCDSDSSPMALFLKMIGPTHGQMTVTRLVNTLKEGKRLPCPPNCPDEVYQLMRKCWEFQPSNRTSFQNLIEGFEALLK

[2] = molecular target: T2, panel of 370 protein kinases (Homo sapiens, UniProt Q00526)
T2 construct: purchased Reaction Biology Corporation (assay service)
T2 sequence (Q00526 whole entry): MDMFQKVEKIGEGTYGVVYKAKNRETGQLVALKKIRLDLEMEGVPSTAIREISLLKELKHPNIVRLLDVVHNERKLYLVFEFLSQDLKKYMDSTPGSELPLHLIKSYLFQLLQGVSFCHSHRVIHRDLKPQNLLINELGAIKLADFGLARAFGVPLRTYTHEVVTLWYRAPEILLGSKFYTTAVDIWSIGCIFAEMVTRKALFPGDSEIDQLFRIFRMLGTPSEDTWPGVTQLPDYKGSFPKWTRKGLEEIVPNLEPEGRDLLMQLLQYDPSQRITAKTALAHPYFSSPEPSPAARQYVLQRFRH

[3] = molecular target: T3, panel of 370 protein kinases (Homo sapiens, UniProt P05771); settings: 2 h, kinase PKCb1; read-out: % Enzyme Activity (relative to DMSO controls)
T3 construct: purchased Reaction Biology Corporation (assay service)
T3 sequence (P05771 whole entry): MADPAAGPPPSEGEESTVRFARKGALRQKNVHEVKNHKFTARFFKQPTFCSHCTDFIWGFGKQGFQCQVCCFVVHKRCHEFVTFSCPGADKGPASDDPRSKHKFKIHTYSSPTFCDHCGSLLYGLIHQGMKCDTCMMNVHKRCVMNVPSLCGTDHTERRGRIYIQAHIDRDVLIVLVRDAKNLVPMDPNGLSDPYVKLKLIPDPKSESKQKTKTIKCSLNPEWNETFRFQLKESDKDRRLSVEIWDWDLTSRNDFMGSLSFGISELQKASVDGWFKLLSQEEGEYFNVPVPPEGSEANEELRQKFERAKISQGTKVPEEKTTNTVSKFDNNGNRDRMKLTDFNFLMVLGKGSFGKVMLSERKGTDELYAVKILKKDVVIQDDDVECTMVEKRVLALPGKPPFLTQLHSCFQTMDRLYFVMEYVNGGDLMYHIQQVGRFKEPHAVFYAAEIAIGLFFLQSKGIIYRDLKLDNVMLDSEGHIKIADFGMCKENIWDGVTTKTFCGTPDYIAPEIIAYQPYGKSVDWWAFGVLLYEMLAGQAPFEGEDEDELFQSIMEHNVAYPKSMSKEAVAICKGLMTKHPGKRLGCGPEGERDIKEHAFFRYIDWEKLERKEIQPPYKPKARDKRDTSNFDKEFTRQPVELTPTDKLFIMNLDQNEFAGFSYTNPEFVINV

[4] = molecular target: T4, panel of 370 protein kinases (Homo sapiens, UniProt Q8TD08); settings: 2 h, kinase ERK7/MAPK15; read-out: % Enzyme Activity (relative to DMSO controls)
T4 construct: purchased Reaction Biology Corporation (assay service)

[5] = molecular target: T5, panel of 370 protein kinases (Homo sapiens, UniProt Q9H3Y6); settings: 2 h, kinase SRMS; read-out: % Enzyme Activity (relative to DMSO controls)
T5 construct: purchased Reaction Biology Corporation (assay service)

[6] = molecular target: T6, panel of 370 protein kinases (Homo sapiens, UniProt P43250); settings: 2 h, kinase GRK6; read-out: % Enzyme Activity (relative to DMSO controls)
T6 construct: purchased Reaction Biology Corporation (assay service)

[7] = molecular target: T7, panel of 370 protein kinases (Homo sapiens, UniProt Q07912); settings: 2 h, kinase ACK1; read-out: % Enzyme Activity (relative to DMSO controls)
T7 construct: purchased Reaction Biology Corporation (assay service)

[8] = molecular target: T8, panel of 370 protein kinases (Homo sapiens, UniProt O14757); settings: kinase CHK1
T8 construct: purchased Reaction Biology Corporation (assay service)
T8 sequence (O14757 whole entry): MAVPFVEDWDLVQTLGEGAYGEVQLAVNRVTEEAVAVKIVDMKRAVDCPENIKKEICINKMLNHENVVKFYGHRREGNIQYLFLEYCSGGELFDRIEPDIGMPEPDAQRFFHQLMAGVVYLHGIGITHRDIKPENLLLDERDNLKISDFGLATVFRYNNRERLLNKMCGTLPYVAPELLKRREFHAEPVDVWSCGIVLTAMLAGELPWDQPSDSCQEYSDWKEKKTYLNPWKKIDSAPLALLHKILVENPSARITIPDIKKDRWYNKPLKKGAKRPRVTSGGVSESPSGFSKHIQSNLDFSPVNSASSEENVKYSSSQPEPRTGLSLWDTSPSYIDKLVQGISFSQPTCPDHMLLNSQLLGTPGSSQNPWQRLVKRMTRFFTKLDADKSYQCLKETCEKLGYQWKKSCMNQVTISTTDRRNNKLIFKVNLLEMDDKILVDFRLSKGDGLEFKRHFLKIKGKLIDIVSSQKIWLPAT

[9] = molecular target: T9, panel of 370 protein kinases (Homo sapiens, UniProt P51617); settings: 2 h, kinase IRAK1; read-out: % Enzyme Activity (relative to DMSO controls)
T9 construct: purchased Reaction Biology Corporation (assay service)

[10] = molecular target: T10, panel of 370 protein kinases (Homo sapiens, UniProt Q5VT25); settings: 2 h, kinase MRCKa/CDC42BPA; read-out: % Enzyme Activity (relative to DMSO controls)
T10 construct: purchased Reaction Biology Corporation (assay service)

[11] = molecular target: T11, panel of 370 protein kinases (Homo sapiens, UniProt Q9H2K8); settings: 2 h, kinase TAOK3/JIK; read-out: % Enzyme Activity (relative to DMSO controls)
T11 construct: purchased Reaction Biology Corporation (assay service)

[12] = molecular target: T12, panel of 370 protein kinases (Homo sapiens, UniProt O60307); settings: 2 h, kinase MAST3; read-out: % Enzyme Activity (relative to DMSO controls)
T12 construct: purchased Reaction Biology Corporation (assay service)

[13] = molecular target: T13, panel of 370 protein kinases (Homo sapiens, UniProt P41279); settings: 2 h, kinase COT1/MAP3K8; read-out: % Enzyme Activity (relative to DMSO controls)
T13 construct: purchased Reaction Biology Corporation (assay service)
T13 sequence (P41279 whole entry): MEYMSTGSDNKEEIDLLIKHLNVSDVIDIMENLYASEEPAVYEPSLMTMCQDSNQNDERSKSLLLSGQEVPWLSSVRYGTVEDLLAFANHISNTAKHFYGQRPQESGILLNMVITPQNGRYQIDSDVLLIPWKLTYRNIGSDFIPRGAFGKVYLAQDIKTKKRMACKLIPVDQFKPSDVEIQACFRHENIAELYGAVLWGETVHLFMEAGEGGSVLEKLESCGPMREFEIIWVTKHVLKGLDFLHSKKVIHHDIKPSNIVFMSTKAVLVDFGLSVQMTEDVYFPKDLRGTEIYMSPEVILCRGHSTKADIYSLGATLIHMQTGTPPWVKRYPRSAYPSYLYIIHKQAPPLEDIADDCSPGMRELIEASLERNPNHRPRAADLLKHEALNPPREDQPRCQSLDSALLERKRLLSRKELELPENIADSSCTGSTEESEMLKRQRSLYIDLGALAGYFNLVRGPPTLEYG

[14] = molecular target: T14, panel of 370 protein kinases (Homo sapiens, UniProt Q76MJ5); settings: 2 h, kinase ERN2/IRE2; read-out: % Enzyme Activity (relative to DMSO controls)
T14 construct: purchased Reaction Biology Corporation (assay service)
T14 sequence (Q76MJ5 35-926): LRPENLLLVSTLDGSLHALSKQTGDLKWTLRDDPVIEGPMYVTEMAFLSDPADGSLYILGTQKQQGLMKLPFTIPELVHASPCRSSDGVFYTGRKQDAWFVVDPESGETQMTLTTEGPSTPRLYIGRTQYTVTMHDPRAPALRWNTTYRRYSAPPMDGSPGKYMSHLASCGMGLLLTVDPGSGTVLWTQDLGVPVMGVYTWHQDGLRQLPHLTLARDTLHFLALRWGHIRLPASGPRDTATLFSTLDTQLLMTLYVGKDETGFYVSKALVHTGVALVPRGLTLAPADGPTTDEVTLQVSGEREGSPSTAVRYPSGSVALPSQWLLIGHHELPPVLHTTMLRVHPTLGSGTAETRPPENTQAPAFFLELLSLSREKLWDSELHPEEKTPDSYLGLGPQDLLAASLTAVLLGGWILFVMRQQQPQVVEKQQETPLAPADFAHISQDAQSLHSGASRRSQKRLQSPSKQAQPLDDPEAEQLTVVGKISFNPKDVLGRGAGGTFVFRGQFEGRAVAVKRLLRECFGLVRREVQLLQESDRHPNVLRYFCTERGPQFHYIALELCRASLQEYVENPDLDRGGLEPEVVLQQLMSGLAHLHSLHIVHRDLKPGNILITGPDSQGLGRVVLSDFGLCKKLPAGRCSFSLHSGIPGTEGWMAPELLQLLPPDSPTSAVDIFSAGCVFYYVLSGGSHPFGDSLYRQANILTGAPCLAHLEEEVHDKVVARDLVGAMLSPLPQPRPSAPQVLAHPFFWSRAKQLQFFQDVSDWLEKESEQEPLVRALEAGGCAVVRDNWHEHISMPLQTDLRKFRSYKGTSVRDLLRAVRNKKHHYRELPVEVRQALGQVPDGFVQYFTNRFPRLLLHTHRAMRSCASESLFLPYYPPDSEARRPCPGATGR

[15] = molecular target: T15, panel of 370 protein kinases (Homo sapiens, UniProt Q96S53); settings: 2 h, kinase TESK2; read-out: % Enzyme Activity (relative to DMSO controls)
T15 construct: purchased Reaction Biology Corporation (assay service)

[16] = molecular target: T16, panel of 370 protein kinases (Homo sapiens, UniProt Q13043); settings: kinase MST1/STK4
T16 construct: purchased Reaction Biology Corporation (assay service)
T16 sequence (Q13043 whole entry): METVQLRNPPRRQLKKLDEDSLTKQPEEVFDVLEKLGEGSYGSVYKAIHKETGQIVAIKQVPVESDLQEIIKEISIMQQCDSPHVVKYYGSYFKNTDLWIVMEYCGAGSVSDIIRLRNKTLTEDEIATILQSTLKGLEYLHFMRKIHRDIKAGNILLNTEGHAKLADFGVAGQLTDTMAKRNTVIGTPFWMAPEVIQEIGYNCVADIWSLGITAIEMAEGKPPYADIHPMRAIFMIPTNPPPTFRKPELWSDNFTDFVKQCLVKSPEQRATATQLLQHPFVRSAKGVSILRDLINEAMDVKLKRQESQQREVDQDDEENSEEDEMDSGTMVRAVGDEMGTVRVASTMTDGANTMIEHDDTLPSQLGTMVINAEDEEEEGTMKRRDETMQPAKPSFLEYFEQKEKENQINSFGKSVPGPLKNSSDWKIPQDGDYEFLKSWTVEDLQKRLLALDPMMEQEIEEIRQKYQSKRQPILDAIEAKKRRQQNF

[17] = molecular target: T17, panel of 370 protein kinases (Homo sapiens, UniProt P24723); settings: 2 h, kinase PKCeta; read-out: % Enzyme Activity (relative to DMSO controls)
T17 construct: purchased Reaction Biology Corporation (assay service)

[18] = molecular target: T18, panel of 370 protein kinases (Homo sapiens, UniProt P11802); settings: 2 h, read-out: % Enzyme Activity (relative to DMSO controls)
T18 construct: purchased Reaction Biology Corporation (assay service)
T18 sequence (P11802 whole entry): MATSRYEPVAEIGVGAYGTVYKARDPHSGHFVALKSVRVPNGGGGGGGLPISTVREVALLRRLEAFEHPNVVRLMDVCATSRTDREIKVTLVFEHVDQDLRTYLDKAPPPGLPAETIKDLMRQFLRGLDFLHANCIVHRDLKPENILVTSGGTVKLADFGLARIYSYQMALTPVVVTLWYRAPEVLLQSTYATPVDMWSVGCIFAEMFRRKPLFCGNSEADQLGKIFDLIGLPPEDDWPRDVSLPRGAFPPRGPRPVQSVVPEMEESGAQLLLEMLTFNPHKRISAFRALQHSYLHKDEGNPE

[19] = molecular target: T19, panel of 370 protein kinases (Homo sapiens, UniProt Q04759); settings: 2 h, kinase PKCtheta; read-out: % Enzyme Activity (relative to DMSO controls)
T19 construct: purchased Reaction Biology Corporation (assay service)

[20] = molecular target: T20, panel of 370 protein kinases (Homo sapiens, UniProt Q16620); settings: 2 h, kinase TRKB; read-out: % Enzyme Activity (relative to DMSO controls)
T20 construct: purchased Reaction Biology Corporation (assay service)

[21] = molecular target: T21, panel of 370 protein kinases (Homo sapiens, UniProt P04626); settings: 2 h, kinase ERBB2/HER2; read-out: % Enzyme Activity (relative to DMSO controls)
T21 construct: purchased Reaction Biology Corporation (assay service)

Question: For `CCN1CCN(C(=O)c2ccc(Nc3ncc(F)c(-c4ccc5nc(N(C)C)sc5c4)n3)nc2)CC1` [YK-2-69], which “% Enzyme Activity (relative to DMSO controls)” value [1] is on record?
Answer: 103.96% and 100.40%

Question: What about the “% Enzyme Activity (relative to DMSO controls)” value ([2]; kinase CDK3/cyclin E) of the same compound?
Answer: 106.69% and 103.49%

Question: And the “% Enzyme Activity (relative to DMSO controls)” value ([2]; kinase CDK3/cyclin E2)?
Answer: 101.82% and 90.67%

Question: What about the remaining activity at 1 µM [3] of the same compound?
Answer: 101%

Question: And the remaining activity at 1 µM [4]?
Answer: 65.5%

Question: What about the remaining activity at 1 µM [5] of the same compound?
Answer: 80.7%

Question: And the remaining activity at 1 µM [6]?
Answer: 114%

Question: And the remaining activity at 1 µM [7]?
Answer: 101%

Question: What about the “% Enzyme Activity (relative to DMSO controls)” value [8] of the same compound?
Answer: 90.61% and 88.71%

Question: And the remaining activity at 1 µM [9]?
Answer: 90.6%

Question: What about the remaining activity at 1 µM [10] of the same compound?
Answer: 111%

Question: And the remaining activity at 1 µM [11]?
Answer: 104%

Question: What about the remaining activity at 1 µM [12] of the same compound?
Answer: 88.1%

Question: What about the remaining activity at 1 µM [13] of the same compound?
Answer: 96.1%

Question: And the remaining activity at 1 µM [14]?
Answer: 88.5%

Question: What about the remaining activity at 1 µM [15] of the same compound?
Answer: 98.2%

Question: What about the “% Enzyme Activity (relative to DMSO controls)” value [16] of the same compound?
Answer: 107.26% and 103.88%

Question: What about the remaining activity at 1 µM [17] of the same compound?
Answer: 77%

Question: And the remaining activity at 1 µM ([18]; kinase CDK4/cyclin D1)?
Answer: 6.13%

Question: And the remaining activity at 1 µM ([18]; kinase CDK4/cyclin D3)?
Answer: 11.2%

Question: What about the remaining activity at 1 µM [19] of the same compound?
Answer: 103%

Question: What about the remaining activity at 1 µM [20] of the same compound?
Answer: 88.6%

Question: What about the remaining activity at 1 µM [21] of the same compound?
Answer: 100%
